Experimental data: US7557133B2, “Caspase inhibitors containing isoxazoline ring” (LG Life Sciences Ltd., priority 2003, dated 2009)

How the values were obtained:
caspase-8 = molecular target: T1, caspase-8 (Homo sapiens, UniProt Q14790); assay: Caspase-8 inhibitory effect (fluorescent substrate AcDEVD-AFC); type: biochemical
T1 construct: p10 and p20 subunits (Thornberry, N. A. et al, Nature, 1992, 356, 768) were expressed in E. coli; made in house; host or cells: E. coli
Method in brief: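 E. coli–expressed p10/p20 caspase-8, 2.1 nM, with 50 μM Ac-DEVD-AFC at 25 °C in 50 mM HEPES pH 7.50, sucrose, CHAPS, NaCl, EDTA, 10 mM DTT over various inhibitor concentrations. Initial rates by fluorescence (ex 405 / em 505); Ki from Lineweaver-Burk plot, Kobs from time-course cleavage equation.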

[1] = tested on: Jurkat cell (ATCC TIB-152); assay: Jurkat cell apoptosis by Fas antibody, WST-1 method; type: cell-based; details: for IC50: apoptosis using Fas antibody, WST-1
Method in brief: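 Jurkat cells (ATCC TIB-152) induced to apoptosis with Fas antibody in the presence of inhibitor. Viable cells quantified by WST-1 colour change, absorbance at 440 nm.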

[2] = tested on: LPS-induced acute hepatitis; assay: Therapeutic effect for LPS-induced acute hepatitis in mouse (plasma ALT); type: in vivo
Protocol: Female Balb/c mice (6 weeks, Charles River Laboratory, Osaka, Japan) were kept under the conditions of 22 °C, 55% of relative humidity, and light-darkness cycle of 12 hours. Food and water were supplied ad libitum. In pyrogen-free saline were dissolved LPS (lipopolysaccaride) and D-galactosamine in concentrations of 0.4 mg/ml and 280 mg/ml, respectively, and their 1:1 mixture was injected to mice in the amount of 5 ml/kg. Immediately after the injection of LPS and D-galactosamine, vehicle (a mixture of PEG400:ethanol:Tween80=15:7.5:2.5 was diluted by five times with saline) wherein the test compound is dissolved or the vehicle alone was intraperitoneally injected into the mice. After 8 hours from the drug injection, blood samples were obtained from their hearts.
The plasma ALT activity was determined for the blood samples obtained in Step 1 using ALT assay kit (Asan Pharm. Co., Seoul, Korea) according to the manufacturer's instruction.

hepatic cell apoptosis = assay: Inhibitory effect against apoptosis during the bile stagnation in SD rats (TUNEL staining); type: in vivo, rat; details: for TUNEL positive cells/field: BDL rats
Protocol: Male Spargue-Dawley rats (6 weeks, Korea Biolink) were kept under the conditions of 22 °C, 55% of relative humidity, and light-darkness cycle of 12 hours. Food and water were supplied ad libitum. For the ligation of biliary duct, the rats were anesthetized by inhalation of 1% halothane, abdomen of the rats were cut open, the distal and proximal biliary ducts were ligated, the part between the ligation sites were cut, 2 ml of saline was injected, and sutured.
Test compound (Iii) was orally administered in a dosage of 3 mg/kg or 10 mg/kg twice a day. That is, the compound was dissolved in a cosolvent (PEG400:ethanol:Tween80=15:7.5:2.5), diluted with phosphate buffer (pH 7.4) by five times, and administered. To the control group was administered the solution without the test compound. The administration was made for 1 week after 1 week from the ligation of biliary duct.
The test compound (Iii) was administered to the SD rats whose biliary ducts were ligated according to the procedure as Step 1 of Experiment 3. After 2 weeks from the operation, the rats were sacrificed. The livers were fixed by 10% neutral formalin and a paraffin section of 5 μm thickness was prepared. TUNEL staining was carried out using ApopTag Peroxidase In Situ Apoptosis Detection kit (Chemicon) according to the manufacturer's instruction. More than 10 sites of the TUNEL stained liver tissue were photographed in 200 magnifications without any overlap, of which result was shown in FIG. 2. The number of cells suffering apoptosis in each test group was counted and represented in the following Table 2. In the following table, the Sham operation means the case where the biliary duct was exposed but not ligated, and the BDL operation means the case where only the vehicle was administered after the ligation of biliary duct.

foot edema = assay: Antiphlogistic effect in rats (carrageenan foot edema); type: in vivo, rat; details: 3 hours after carrageenan
Protocol: Male SD rats (6 weeks, Orient) were kept under the conditions of 22 °C, 55% of relative humidity, and light-darkness cycle of 12 hours. Food and water were supplied ad libitum. Before the induction of edema, the foot volume of each rat was measured by plethysmometer. Before the induction of edema, vehicle (a mixture of PEG400: ethanol:Tween80=15:7.5:2.5 was diluted by ten times with phosphate buffer) wherein the test compound is dissolved or the vehicle alone was orally administered into the rats. Carrageenan (gamma) was dissolved in the concentration of 1% in saline, and subcutaneously injected into the right rear foot of the rats in the dosage of 100 μl. After 3 hours, the right foot volume was measured again by plethysmometer. The effect of the test compound was shown by edema inhibition (%) (see Table 3). The edema inhibition (%) was calculated according to the following Equation 2. Edema Inhibition (%)=100×(Average of the increased foot volume in the vehicle-administered group−Increased foot volume in the test compound-administered group)/Average of the increased foot volume in the vehicle-administered group Equation 2

T1 sequence (Q14790 217-374 limits assumed, species assumed): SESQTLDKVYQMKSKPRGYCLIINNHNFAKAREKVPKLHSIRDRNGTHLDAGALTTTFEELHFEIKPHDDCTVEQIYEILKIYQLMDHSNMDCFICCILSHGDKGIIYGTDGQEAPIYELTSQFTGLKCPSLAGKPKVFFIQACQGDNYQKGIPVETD
T1 sequence (Q14790 385-479 limits assumed, species assumed): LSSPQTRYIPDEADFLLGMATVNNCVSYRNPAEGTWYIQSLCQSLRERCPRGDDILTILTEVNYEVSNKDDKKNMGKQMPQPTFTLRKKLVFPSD

CC(C)[C@@]1(C(=O)NC(CC(=O)O)C(=O)CF)CC(c2nccc3ccccc23)=NO1 (stereo partly drawn) [Iii, 5-Fluoro-3-({[(5R)-5-isopropyl-3-(1-isoquinolinyl)-4,5-dihydro-5-isoxazolyl]carbonyl}amino)-4-oxopentanoic acid]
increased inhibitory activity against caspase-8 compared with LB84068MP (caspase-8): ≥ 10 times | kinact/KI (caspase-8; pH 7.5, 25° C., 50 μM AcDEVD-AFC, 2.1 nM caspase-8, read-out: Caspase-8 Kobs/[I] (converted)): 217000 M⁻¹ s⁻¹ | increased inhibitory activity against Jurkat cell compared with LB84068MP [1]: ≥ 10 times | IC50 ([1]; Homo sapiens, Jurkat): 0.1 µM | IC50 [1]: ≤ 0.1 µM | increased activity against LPS-induced acute hepatitis model (mouse) compared with LB84068MP ([2]; in vivo): about 100 times | ED50 ([2]; ip, LPS and D-galactosamine, intraperitoneally injected, plasma ALT after 8 hours, read-out: ED50 (LPS + Gal)): 0.01 mg/kg | TUNEL positive cells/field (hepatic cell apoptosis; 3 mg/kg orally twice a day for 1 week): 4.12 ± 1.3 TUNEL positive cells/field | TUNEL positive cells/field (hepatic cell apoptosis; 10 mg/kg orally twice a day for 1 week): 5.66 ± 1.34 TUNEL positive cells/field | inhibition of apoptosis (TUNEL staining) (hepatic cell apoptosis; bile stagnation model, rats): 75% | Edema inhibition effect (%) Average (foot edema; 30 mg/kg oral): 20.7% | Edema inhibition effect (%) Average (foot edema; 100 mg/kg oral): 22.7%
